According to patent US10052320B2, “Substituted quinoxalines as FGFR kinase inhibitors” (ASTEX THERAPEUTICS LIMITED, priority 2011, dated 2018):
Like-named read-outs stand apart in the source and are kept apart here.

Key:
[1] = target: Ba/F3-FGFR1-transfected cells (Homo sapiens, UniProt P11362); assay: Ba/F3-FGFR1 (minus IL3) cellular proliferation assay, Alamar Blue; format: cell-based; conditions: for BAF3-FGFR 1 (MIN IL3) 384 well pIC50: minus IL3, 384 well
Experimental: Ba/F3-FGFR1 (Minus IL3 or Plus IL3) (Cellular Proliferation Assay)
Cells were put in an incubator at 37° C. and 5% CO2. After 24 hours, 10 μl of Alamar Blue solution (0.5 mM K3Fe(CN)6, 0.5 mM KaFe(CN)6, 0.15 mM Resazurin and 100 mM Phosphate Buffer) was added to the wells, incubated for 4 hours at 37° C. and 5% CO2 before RFU's (Relative Fluorescence Units) (ex. 540 nm., em. 590 nm.) were measured in a flurorescence plate reader. […]
(§1) In a 96 well plate, 180 μl cell culture medium (phenol red free RPMI-1640, 10% FBS, 2 mM L-Glutamine and 50 μg/ml Gentamycin) containing 10000 cells per well of Ba/F3-FGFR1-transfected cells were pipette and 20 μl of compound dilution in DMSO was added. Cells were put in an incubator at 37° C. and 5% CO2. After 24 hours, 40 μl of Alamar Blue solution (0.5 mM K3Fe(CN)6, 0.5 mM KaFe(CN)6, 0.15 mM Resazurin and 100 mM Phosphate Buffer) was added to the wells, incubated for 4 hours at 37° C. and 5% CO2 before RFU's (Relative Fluorescence Units) (ex. 540 nm., em. 590 nm.) were measured in a flurorescence plate reader.

[2] = tested on: Ba/F3-Flt3-transfected cells in the presence of 10 ng/ml murine IL3; assay: Ba/F3-Flt3 (plus IL3) cellular proliferation counterscreen, Alamar Blue; format: cell-based; conditions: plus 10 ng/ml murine IL3; for IC50: Mus musculus, read-out: BAF3-FLT3 (PLUS IL3) 384 well pIC50 (converted)
Experimental: Ba/F3-Flt3 (Minus IL3 or Plus IL3) (Cellular Proliferation Assay)
as §1, with “a 384” for “a 96”, “plate, 100 nl of compound dilution in DMSO was sprayed before adding 50” for “plate, 180”, “containing 20000” for “containing 10000”, “of Ba/F3-Flt3-transfected cells.” for “of Ba/F3-FGFR1-transfected cells were pipette and 20 μl of compound dilution in DMSO was added.”, “hours, 10” for “hours, 40”
(§2) As a counterscreen the same experiment was performed in the presence of 10 ng/ml murine IL3.
as §1, with “Ba/F3-Flt3-transfected” for “Ba/F3-FGFR1-transfected”

[3] = tested on: Ba/F3-FGFR3-transfected cells in the presence of 10 ng/ml murine IL3; assay: Ba/F3-FGFR3 (plus IL3) cellular proliferation counterscreen, Alamar Blue; format: cell-based; conditions: for IC50: Mus musculus
Experimental: Ba/F3-FGFR3 (Minus IL3 or Plus IL3) (Cellular Proliferation Assay)
as §1, with “a 384” for “a 96”, “plate, 100 nl of compound dilution in DMSO was sprayed before adding 50” for “plate, 180”, “containing 20000” for “containing 10000”, “of Ba/F3-FGFR3-transfected cells.” for “of Ba/F3-FGFR1-transfected cells were pipette and 20 μl of compound dilution in DMSO was added.”, “hours, 10” for “hours, 40”
as §2
as §1, with “Ba/F3-FGFR3-transfected” for “Ba/F3-FGFR1-transfected”

[4] = target: FGFR1 (h) (Homo sapiens, UniProt P11362); assay: FGFR1 (enzymatic assay), TR-FRET; format: biochemical; conditions: read-out: FGFR 1 pIC50 (converted)
Sequence of FGFR1 (h) (P11362 22-822): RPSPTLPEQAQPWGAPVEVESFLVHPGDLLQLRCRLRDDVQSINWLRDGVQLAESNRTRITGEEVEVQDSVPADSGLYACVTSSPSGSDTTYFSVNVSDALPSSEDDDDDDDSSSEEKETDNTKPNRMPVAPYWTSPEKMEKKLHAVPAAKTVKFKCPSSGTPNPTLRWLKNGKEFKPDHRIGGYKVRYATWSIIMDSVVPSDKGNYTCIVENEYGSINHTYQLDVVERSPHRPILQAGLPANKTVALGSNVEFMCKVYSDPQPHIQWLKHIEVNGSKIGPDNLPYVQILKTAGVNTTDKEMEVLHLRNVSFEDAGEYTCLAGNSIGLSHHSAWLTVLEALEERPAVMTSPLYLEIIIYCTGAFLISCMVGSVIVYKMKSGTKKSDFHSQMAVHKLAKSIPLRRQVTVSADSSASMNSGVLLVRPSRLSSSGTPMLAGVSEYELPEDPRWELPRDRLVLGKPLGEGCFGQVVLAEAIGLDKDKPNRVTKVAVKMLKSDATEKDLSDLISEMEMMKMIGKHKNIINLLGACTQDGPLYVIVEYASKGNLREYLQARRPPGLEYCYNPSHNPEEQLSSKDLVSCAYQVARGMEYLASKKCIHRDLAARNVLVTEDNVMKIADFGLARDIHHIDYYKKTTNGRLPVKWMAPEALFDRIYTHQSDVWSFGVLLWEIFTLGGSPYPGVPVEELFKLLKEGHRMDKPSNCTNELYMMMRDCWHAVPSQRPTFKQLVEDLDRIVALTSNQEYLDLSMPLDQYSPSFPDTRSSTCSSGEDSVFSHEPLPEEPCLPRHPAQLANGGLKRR
Experimental: (§3) In a final reaction volume of 30 μL, FGFR1 (h) (25 ng/ml) was incubated with 50 mM HEPES pH 7.5, 6 mM MnCl2, 1 mM DTT, 0.1 mM Na3VO4, 0.01% Triton-X-100, 500 nM Btn-Flt3 and 5 μM ATP in the presence of compound (1% DMSO final). […] Time-Resolved Fluorescence Resonance Energy Transfer (TR-FRET) signal (ex340 nm. Em 620 nm, em 655 nm) was measured afterwards and results are expressed in RFU (Relative Fluorescence Units).

[5] = target: FGFR2 (h) (Homo sapiens, UniProt P21802); assay: FGFR2 (enzymatic assay), TR-FRET; format: biochemical; conditions: read-out: FGFR 2 pIC50 (converted)
Sequence of FGFR2 (h) (P21802 22-821): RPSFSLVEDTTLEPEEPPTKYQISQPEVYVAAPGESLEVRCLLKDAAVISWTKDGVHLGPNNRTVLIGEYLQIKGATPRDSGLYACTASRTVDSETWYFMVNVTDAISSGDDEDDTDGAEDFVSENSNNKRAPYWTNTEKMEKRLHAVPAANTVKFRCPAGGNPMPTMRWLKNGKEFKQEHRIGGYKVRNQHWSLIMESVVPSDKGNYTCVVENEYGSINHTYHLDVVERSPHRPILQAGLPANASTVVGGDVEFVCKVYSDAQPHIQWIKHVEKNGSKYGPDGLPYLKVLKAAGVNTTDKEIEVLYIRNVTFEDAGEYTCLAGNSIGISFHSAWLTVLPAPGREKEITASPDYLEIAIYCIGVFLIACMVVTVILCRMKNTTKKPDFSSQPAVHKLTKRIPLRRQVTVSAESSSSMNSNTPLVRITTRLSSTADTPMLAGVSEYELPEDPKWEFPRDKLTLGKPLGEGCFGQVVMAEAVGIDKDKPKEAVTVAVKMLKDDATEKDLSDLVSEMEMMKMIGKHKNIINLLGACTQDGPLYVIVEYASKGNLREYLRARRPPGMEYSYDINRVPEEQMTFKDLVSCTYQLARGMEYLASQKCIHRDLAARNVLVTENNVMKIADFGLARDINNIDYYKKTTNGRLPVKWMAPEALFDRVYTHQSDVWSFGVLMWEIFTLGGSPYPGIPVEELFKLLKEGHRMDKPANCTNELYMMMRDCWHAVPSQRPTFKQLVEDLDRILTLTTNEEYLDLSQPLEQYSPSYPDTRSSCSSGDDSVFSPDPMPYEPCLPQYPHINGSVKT
Experimental: as §3, with “μL, FGFR2” for “μL, FGFR1”, “(h) (150” for “(h) (25”, “and 0.4” for “and 5”, “in” for “in RFU”

[6] = plus 10 ng/ml murine IL3, 384 well, read-out: BAF3-FGFR 3 (PLUS IL3) 384 well pIC50 (converted)
[7] = plus 10 ng/ml murine IL3, 384 well
[8] = plus IL3, 96 well, read-out: BAF3-FGFR 3 (PLUS IL3) 96 well pIC50 (converted)

Sequence of Ba/F3-FGFR1-transfected cells (P11362 whole entry, change not shown): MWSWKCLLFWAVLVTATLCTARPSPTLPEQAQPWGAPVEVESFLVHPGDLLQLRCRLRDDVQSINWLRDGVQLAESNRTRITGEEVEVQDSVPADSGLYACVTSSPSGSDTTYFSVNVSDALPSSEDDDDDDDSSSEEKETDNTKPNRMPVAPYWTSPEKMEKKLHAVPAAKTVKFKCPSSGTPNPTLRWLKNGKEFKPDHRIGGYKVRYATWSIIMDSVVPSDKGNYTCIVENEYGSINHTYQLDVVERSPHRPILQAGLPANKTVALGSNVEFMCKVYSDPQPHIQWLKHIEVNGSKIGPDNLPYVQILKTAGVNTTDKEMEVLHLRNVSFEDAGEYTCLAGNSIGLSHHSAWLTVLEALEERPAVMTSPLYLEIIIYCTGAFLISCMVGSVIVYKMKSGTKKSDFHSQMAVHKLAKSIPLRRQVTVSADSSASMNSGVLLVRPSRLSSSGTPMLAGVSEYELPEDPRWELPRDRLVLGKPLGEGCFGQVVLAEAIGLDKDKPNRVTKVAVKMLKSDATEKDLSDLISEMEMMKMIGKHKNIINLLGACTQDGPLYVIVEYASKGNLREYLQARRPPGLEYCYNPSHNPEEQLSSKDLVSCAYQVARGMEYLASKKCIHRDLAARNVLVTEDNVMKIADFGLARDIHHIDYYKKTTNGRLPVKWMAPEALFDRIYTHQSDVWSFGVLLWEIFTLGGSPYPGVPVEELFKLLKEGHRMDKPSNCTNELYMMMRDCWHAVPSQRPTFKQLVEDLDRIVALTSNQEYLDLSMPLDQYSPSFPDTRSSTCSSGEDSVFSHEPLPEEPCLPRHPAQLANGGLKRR

Structure (SMILES) | BAF3-FGFR 1 (MIN IL3) 384 well pIC50 [1] | IC50 [2] | IC50 [3, 6] | IC50 [4] | IC50 [5] | BAF3-FLT3 (PLUS IL3) 384 well pIC50 [2] | BAF3-FGFR 3 (PLUS IL3) 384 well pIC50 [3, 7] | IC50 [3, 8] | BAF3-FGFR 1 (MIN IL3) 96 well pIC50 ([1]; minus IL3, 96 well)
COCC(O)CN(c1cc(OC)cc(OC)c1)c1ccc2ncc(-c3cccnc3)nc2c1 (single isomer, unassigned) [Compound 46] | 6.49 | > 10000 nM | > 10000 nM | 12.6 nM | 12 nM |  |  |  | 
COCC(O)CN(c1cc(OC)cc(OC)c1)c1ccc2ncc(-c3cccnc3)nc2c1 (single isomer, unassigned) [Compound 47] | 6.29 |  |  | 21.4 nM | 17.4 nM | <5 | <5 |  | 
COCC(CN(c1cc(OC)cc(OC)c1)c1ccc2ncc(-c3cccnc3)nc2c1)OC(C)=O (single isomer, unassigned) [Compound 76] | 6.3 |  |  | 11.7 nM | 20 nM | <5 | <5 |  | 
COc1cc(OC)cc(N(CCCNCC(F)(F)F)c2ccc3ncc(-c4cnc(OC)nc4)nc3c2)c1 [Compound 26] | 5.13 | > 10000 nM | > 10000 nM | 112 nM | 138 nM |  |  |  | 
COc1cc(OC)cc(N(CC2CC2)c2ccc3ncc(NC(=O)c4ccc(F)cc4)nc3c2)c1 [Compound 28] | <5 | > 10000 nM | > 10000 nM | 2400 nM | 6170 nM |  |  | > 10000 nM | 
CO/N=C(\C)c1cnc2ccc(N(CCO)c3cc(OC)cc(OC)c3)cc2n1 [Compound 29] | 6.41 | > 10000 nM | > 10000 nM | 55 nM | 115 nM |  |  |  | 
COc1cc(OC)cc(N(CCN2CCOCC2)c2ccc3ncc(-c4ccc(NC(=O)N5CCOCC5)nc4)nc3c2)c1 [Compound 35] | 6.36 | > 10000 nM | > 10000 nM | 12 nM | 26.3 nM |  |  |  | 
COc1cc(OC)cc(N(CC2CC2)c2ccc3ncc(-c4c[nH]cn4)nc3c2)c1 [Compound 39] | <5 | > 10000 nM | > 10000 nM | 31.6 nM | 81.3 nM |  |  | > 10000 nM | 
COc1cc(OC)cc(N(CC2CC2)c2ccc3ncc(-c4ccnc(N5CCOCC5)c4)nc3c2)c1 [Compound 90] |  |  |  | 589 nM | 676 nM |  |  | > 10000 nM | 5.06
COc1cc(OC)cc(N(CCCNCC(F)(F)F)c2ccc3ncc(-c4ccnc(F)c4)nc3c2)c1 [Compound 144] | <5 | > 10000 nM |  | 74.1 nM | ~85.1 nM |  |  |  | 
COc1cc(OC)cc(N(CCNC(C)C)c2ccc3ncc(-c4ccnc(C(=O)NCCCN)c4)nc3c2)c1 [Compound 146] | 6.46 | > 10000 nM |  | 2 nM | 8.13 nM |  |  |  | 
COc1cc(OC)cc(N(CCCNCC(F)(F)F)c2ccc3ncc(-c4ccnc(C(=O)NCCCN)c4)nc3c2)c1 [Compound 148] | <5 | > 10000 nM |  | 36.3 nM | 58.9 nM |  |  |  | 
COc1cc(OC)cc(N(CCCO)c2ccc3ncc(-c4cccnc4F)nc3c2)c1 [Compound 149] | 5.32 | > 10000 nM |  | 60.3 nM | 102 nM |  |  |  | 
COc1cc(OC)cc(N(CCO)c2ccc3ncc(-c4ccc(N5CCNCC5)cc4)nc3c2)c1 [Compound 166] |  | ~5620 nM | ~6030 nM | 0.513 nM | 3.63 nM |  |  |  | 
COc1cc(OC)cc(N(CCNC(C)C)c2ccc3ncc(-c4ccnn4C4CCCCO4)nc3c2)c1 (centres unmarked) [Compound 188] | 6.46 |  | > 10000 nM | 10 nM | 7.41 nM |  |  |  | 
COc1cc(OC)cc(N(CCNC(C)C)c2ccc3ncc(-c4ccn[nH]4)nc3c2)c1 [Compound 189] | 7.29 |  | > 10000 nM | 2.82 nM | 2.29 nM |  |  |  | 
